This is an account of results in article PMC6271639, “Lycodine-Type Alkaloids from Lycopodiastrum casuarinoides and Their Acetylcholinesterase Inhibitory Activity” (Molecules, 2014).

The IC50 is the concentration that gives 50% inhibition.

Assay [1] deals with T1, AChE (EC3.1.1.7, Sigma product no. C2888) (Electrophorus electricus, UniProt O42275).
T1 construct: purchased Sigma (St. Louis, MO, USA) C2888
Put plainly: AChE inhibition by modified Ellman's method in 96-well microplates. The assay is classed as biochemical. Conditions: for AChE inhibitory activity in words: qualitative statement. The method, then: The isolated lycodine-type alkaloids 1–14 were evaluated for their AChE inhibiting activity by Ellman’s method in 96-well microplates.
AChE (EC3.1.1.7, Sigma product no. C2888), acetylthiocholine iodide (ATCI), 5,5'-dithiobis [2-nitrobenzoic acid] (DTNB) and huperzine A (purity 98%) were purchased from Sigma (St. Louis, MO, USA).
Briefly, 0.1 M sodium phosphate buffer (140 µL, pH = 8.0), sample solution (20 µL) and enzyme solution (15 µL) were mixed and incubated at 4 °C for 20 min. Ten µL of 0.01 M DTNB was added and the reaction was then started by adding 0.075 M ATCI (10 µL). […] Blanks were set up by adding 20 µL buffer solutions instead of 20 µL sample solution. Experiment control was set up by adding 15 µL buffer solutions instead of 15 µL enzyme solution in order to deduct the sample background. All reactions were carried out thrice.
(In general: Ellman's reagent forms a yellow product with free thiols.)

For the next assay, the system named is AChE. The note with it: previously reported ref 8, 13, 21; cited from earlier work.

T1 sequence (O42275 24-633): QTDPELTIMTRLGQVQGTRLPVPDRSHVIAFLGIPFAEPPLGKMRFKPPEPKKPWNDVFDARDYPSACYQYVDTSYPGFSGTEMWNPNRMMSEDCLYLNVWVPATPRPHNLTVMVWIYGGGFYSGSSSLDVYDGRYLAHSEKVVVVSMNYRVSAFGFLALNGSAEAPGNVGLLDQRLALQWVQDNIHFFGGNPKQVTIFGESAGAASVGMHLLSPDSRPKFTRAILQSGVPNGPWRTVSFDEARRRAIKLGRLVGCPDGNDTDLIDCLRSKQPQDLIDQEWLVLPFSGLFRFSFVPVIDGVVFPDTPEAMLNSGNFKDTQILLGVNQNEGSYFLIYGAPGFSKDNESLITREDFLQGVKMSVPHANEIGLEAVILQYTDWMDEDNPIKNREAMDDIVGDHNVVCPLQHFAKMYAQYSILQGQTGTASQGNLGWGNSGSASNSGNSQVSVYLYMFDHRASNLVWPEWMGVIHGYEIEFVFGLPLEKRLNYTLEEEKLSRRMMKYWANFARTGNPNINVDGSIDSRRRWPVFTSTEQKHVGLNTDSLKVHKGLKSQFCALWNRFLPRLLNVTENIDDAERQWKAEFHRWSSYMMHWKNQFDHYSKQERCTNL

In the case of `C=CC1C2C=C(CO)CC1(NC)c1ccc(=O)[nH]c1C2` (stereo not drawn) [Compound 10, casuarinine E], the IC50 in assay [1] was greater than 250 µM.
For `C=C[C@@H]1[C@H]2C=C(CO)C[C@]1(N)c1ccc(=O)[nH]c1C2` [Compound 13, lycoparin C], in assay [1], the concentration for half-maximal inhibition (IC50) came out at 23.9 ± 2.2 µM and the “AChE inhibitory activity in words” value is given as “significant inhibitory activity”. The 50% inhibitory concentration (IC50) with AChE was 25 µM.
`C=CC1C2C=C(C)CC1(N(C)C)c1ccc(=O)[nH]c1C2` (stereo not drawn) [Compound 5, huperzinine]: the “AChE inhibitory activity in words” value in assay [1] is on record as “very weak activity”.
In turn, `C=CC1C2C=C(C)CC1(NC)c1ccc(=O)[nH]c1C2` (stereo not drawn) [Compound 7, N-demethylhuperzinine] had a 50% inhibitory concentration (IC50) in assay [1] of 1.9 ± 0.2 µM.
As to `CC1=C[C@H]2Cc3[nH]c(=O)ccc3[C@]3(C1)NCCC[C@H]23` [Compound 9, huperzine B], in assay [1], it took 20.2 ± 1.3 µM to reach half-maximal inhibition (IC50) and the “AChE inhibitory activity in words” value is on record as “significant inhibitory activity”. In addition, in the assay with AChE, the IC50 was 19.3 µM.
